The source made the active and inactive calls. The calls are words filed in the database; no cut-off is given here.
Legend:
[1] = test system: Erythrocyte; assay: Hemolytic activity in human RBCs at 100 uM incubated for 2 hrs by microplate reader analysis; format: toxicity, cell-based
[2] = test system: Plasmodium falciparum; assay: Antimalarial activity against Plasmodium falciparum 3D7 assessed as reduction in parasite growth incubated for 48 to 50 hrs by microplate reader analysis; format: functional, organism-based
[3] = test system: Plasmodium falciparum; assay: Antimalarial activity against Plasmodium falciparum 3D7 assessed as decrease in development of early trophozoite stage at 3 times IC50 incubated for 48 hrs by Geimsa staining based analysis; format: functional, organism-based
[4] = Selectivity index, ratio of IC50 for cytotoxicity against human A549 cells to IC50 for antimalarial activity against Plasmodium falciparum W2; format: toxicity, cell-based; settings: read-out: Ratio IC50
[5] = test system: A549; assay: Anticancer activity against human A549 cells measured after 24 hrs by MTT assay; format: functional, cell-based; settings: A549, 24 h
[6] = Selectivity index, ratio of IC50 for cytotoxicity against african green monkey vero cells to IC50 for antimalarial activity against Plasmodium falciparum W2; format: toxicity, cell-based; settings: read-out: Ratio IC50
[7] = Selectivity index, ratio of IC50 for cytotoxicity against african green monkey vero cells to IC50 for cytotoxicity against human A549 cells
[8] = Selectivity index, ratio of IC50 for cytotoxicity against african green monkey vero cells to IC50 for antimalarial activity against Plasmodium falciparum 3D7; format: toxicity, cell-based; settings: read-out: Ratio IC50
[9] = test system: Plasmodium falciparum; assay: Resistance index, ratio of IC50 for antimalarial activity against Plasmodium falciparum 3D7 to IC50 for antimalarial activity against Plasmodium falciparum W2; format: functional
[10] = test system: Vero; assay: Cytotoxicity against african green monkey Vero cells upto 1000 uM measured after 72 hrs by MTT assay; format: toxicity, cell-based; settings: chlorocebus sabaeus
[11] = test system: Plasmodium falciparum; assay: Antimalarial activity against Plasmodium falciparum 3D7 assessed as decrease in new ring formation at 3 times IC50 concentration incubated for 48 hrs by Geimsa staining based analysis; format: functional, organism-based
[12] = test system: Plasmodium falciparum; assay: Antimalarial activity against Plasmodium falciparum W2 assessed as reduction in parasite growth incubated for 48 to 50 hrs by microplate reader analysis; format: functional, organism-based
[13] = Selectivity index, ratio of IC50 for cytotoxicity against human A549 cells to IC50 for antimalarial activity against Plasmodium falciparum 3D7; format: toxicity, cell-based; settings: read-out: Ratio IC50
[14] = biological target: T1, Falcipain-3 (Plasmodium falciparum 3D7, UniProt Q8IIL0); assay: Inhibition of Plasmodium falciparum FP3 using Z-Leu-Arg-AMC as substrate incubated for 30 mins by spectrofluorometry analysis
T1 sequence (Q8IIL0 whole entry): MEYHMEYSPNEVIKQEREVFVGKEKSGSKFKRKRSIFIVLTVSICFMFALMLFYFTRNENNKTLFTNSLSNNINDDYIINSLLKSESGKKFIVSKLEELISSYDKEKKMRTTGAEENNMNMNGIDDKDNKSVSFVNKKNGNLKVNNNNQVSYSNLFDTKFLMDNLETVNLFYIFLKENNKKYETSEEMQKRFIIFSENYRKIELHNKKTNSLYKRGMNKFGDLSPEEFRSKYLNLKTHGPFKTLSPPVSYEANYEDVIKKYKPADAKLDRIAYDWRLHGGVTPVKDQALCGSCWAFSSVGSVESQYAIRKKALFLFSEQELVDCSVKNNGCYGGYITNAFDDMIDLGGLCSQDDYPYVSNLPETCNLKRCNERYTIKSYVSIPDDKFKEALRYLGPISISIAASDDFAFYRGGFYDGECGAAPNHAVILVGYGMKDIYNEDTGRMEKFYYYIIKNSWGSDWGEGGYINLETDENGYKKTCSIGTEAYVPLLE

[15] = biological target: T2, Falcipain 2 (Plasmodium falciparum, UniProt Q9N6S8); assay: Inhibition of Plasmodium falciparum FP2 using Z-Leu-Arg-AMC as substrate incubated for 30 mins by spectrofluorometry analysis
T2 sequence (Q9N6S8 whole entry): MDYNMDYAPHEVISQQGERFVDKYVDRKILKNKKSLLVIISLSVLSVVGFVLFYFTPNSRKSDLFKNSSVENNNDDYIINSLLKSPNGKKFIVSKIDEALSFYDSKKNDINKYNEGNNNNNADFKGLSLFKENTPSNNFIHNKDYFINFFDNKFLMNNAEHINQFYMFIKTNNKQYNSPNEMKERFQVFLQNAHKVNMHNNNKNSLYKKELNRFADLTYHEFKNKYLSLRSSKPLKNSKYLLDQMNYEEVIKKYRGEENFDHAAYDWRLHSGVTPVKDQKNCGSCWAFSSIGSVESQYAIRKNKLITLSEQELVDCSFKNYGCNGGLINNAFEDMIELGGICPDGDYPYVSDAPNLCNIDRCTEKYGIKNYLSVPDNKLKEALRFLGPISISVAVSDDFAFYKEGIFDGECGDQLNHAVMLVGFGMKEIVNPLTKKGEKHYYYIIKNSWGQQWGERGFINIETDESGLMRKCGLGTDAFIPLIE

[16] = test system: Plasmodium falciparum; assay: Antimalarial activity against ring stage Plasmodium falciparum 3D7 infected in human erythrocytes incubated for 48 to 50 hrs by YOYO-1 staining based FACS analysis; format: functional, organism-based; settings: 3D7, Erythrocyte
[17] = Plasmodium falciparum, 3D7, read-out: IC50

With `Oc1ccccc1C(c1ccc(F)cc1)N1CCN(c2cnccn2)CC1` (centres undefined) the Activity [1] was “Non-Toxic” and the IC50 [2] was “Not Determined(Insoluble)”.

In the case of `Oc1ccccc1C(c1ccc(F)c(Cl)c1)N1CCN(c2cnccn2)CC1` (centres undefined), the Activity [1] is reported as “Non-Toxic” and the IC50 [2, 17] is reported as 4.1 µM.

For `COc1cccc(C(c2ccc(C(F)(F)F)cc2)N2CCN(c3cnccn3)CC2)c1O` (centres undefined), the Activity [3] was “Active”, the selectivity ratio [4] was 27.7 and the Activity [1] was “Non-Toxic”. It also gave an IC50 [5] of 120 µM, an IC50 [2, 17] of 3.05 µM and a selectivity ratio [6] of 230. For the same compound, the “Ratio IC50” value [7] was 8.3, the selectivity ratio [8] was 328 and the Ratio IC50 [9] was 0.7. The Activity [10] was “Non-Toxic”, the Activity [11] was “Active” and the IC50 [12] was 4.35 µM. The selectivity ratio [13] was 39.5, the IC50 [14] was 6.8 µM and the IC50 [15] was 6.2 µM.

In the case of `Oc1ccccc1C(c1ccc(OC(F)(F)F)cc1)N1CCN(c2cnccn2)CC1` (centres undefined), the Activity [3] is reported as “Active”, the selectivity ratio [4] is reported as 27.1 and the Activity [1] is reported as “Non-Toxic”. The IC50 [5] was 91.8 µM, the IC50 [2, 17] was 2.8 µM and the selectivity ratio [6] was 295. For the same compound, the “Ratio IC50” value [7] was 10.89, the selectivity ratio [8] was 357 and the Ratio IC50 [9] was 0.83. For the same compound, the Activity [10] was “Non-Toxic”, the Activity [11] was “Active” and the IC50 [12] was 3.39 µM. The selectivity ratio [13] was 32.8, the IC50 [14] was 6.4 µM and the IC50 [15] was 5.9 µM.

For `COc1cccc(C(c2ccc(OC(F)(F)F)cc2)N2CCN(c3cnccn3)CC2)c1O` (centres undefined), the selectivity ratio [4] was 21.6, the Activity [1] was “Non-Toxic” and the IC50 [5] was 47.1 µM. For the same compound, the IC50 [2, 17] was 3.5 µM, the selectivity ratio [6] was 459 and the “Ratio IC50” value [7] was 21.23. The selectivity ratio [8] was 286, the Ratio IC50 [9] was 1.6 and the Activity [10] was “Non-Toxic”. For the same compound, the IC50 [12] was 2.18 µM, the selectivity ratio [13] was 13.5 and the IC50 [14] was 14.4 µM. It also gave an IC50 [15] of 11.4 µM.

`CCc1nc(N)nc(N)c1-c1ccc(Cl)cc1` [PYRIMETHAMINE] gave an IC50 [16] of 0.015 µM.

With `Oc1ccccc1C(c1ccc(F)c(F)c1)N1CCN(c2cnccn2)CC1` (centres undefined) the Activity [1] was “Non-Toxic” and the IC50 [2, 17] was 3.91 µM.

With `COc1cccc(C(c2ccc(F)cc2)N2CCN(c3cnccn3)CC2)c1O` (centres undefined) the Activity [1] was “Non-Toxic” and the IC50 [2, 17] was greater than 12.5 µM.

In the case of `COc1ccc(C(c2cccc(OC)c2O)N2CCN(c3cnccn3)CC2)cc1` (centres undefined), the Activity [1] is reported as “Non-Toxic” and the IC50 [2, 17] is reported as greater than 12.5 µM.

In the case of `Oc1ccccc1C(c1ccc(Cl)c(Cl)c1)N1CCN(c2cnccn2)CC1` (centres undefined), the Activity [3] is reported as “Active”, the selectivity ratio [4] is reported as 15 and the Activity [1] is reported as “Non-Toxic”. The IC50 [5] was 61.4 µM, the IC50 [2, 17] was 2.81 µM and the selectivity ratio [6] was 244. The “Ratio IC50” value [7] was 16.29, the selectivity ratio [8] was 356 and the Ratio IC50 [9] was 0.68. For the same compound, the Activity [10] was “Non-Toxic”, the Activity [11] was “Active” and the IC50 [12] was 4.1 µM. For the same compound, the selectivity ratio [13] was 21.9, the IC50 [14] was 6.9 µM and the IC50 [15] was 6.6 µM.
